Assay results taken from patent US9511080B2, “Okadaella gastrococcus and cancer” (Okada Medical Services Pty Ltd, priority 2009, dated 2016).

Experiments:
[1] = tested on: Okadaella gastrococcus (Og) isolates; assay: In vitro antibiotic sensitivity of Og (E-tests and diffusion disc tests); format: cell-based; settings: for Og can be treated using antibiotic (in vitro assays): 25 Og isolates from gastric mucosal biopsy specimens
Procedure: Twenty-five Og isolates were obtained from gastric mucosal biopsy specimens. E-tests and diffusion disc tests were performed under microaerophilic condition (Oxygen 5%, CO2 10%, and Nitrogen 85%) utilizing. 5% horse blood agar, except metronidazole which was tested under anaerobic condition. Antibiotic sensitivity was read 72 hours after incubation. Randomly selected isolates were also examined under TEM to confirm the ultrastructure of Og. Results: Og was sensitive to various antibiotics, in particular to the penicillins, the cephalosporins, the quinolones, and chloramphenicol.

[2] = tested on: intestinal metaplasia of the gastric mucosa; settings: co-administered with Hp eradication therapy (Walker, 2003); cited from earlier work

SMILES: CC1(C)S[C@@H]2[C@H](NC(=O)[C@H](N)c3ccccc3)C(=O)N2[C@H]1C(=O)O [ampicillin]
- Og can be treated using antibiotic (in vitro assays) [1]: can be treated

SMILES: O=C1O[C@H]([C@@H](O)CO)C(O)=C1O [ascorbic acid]
- Effect on intestinal metaplasia of the gastric mucosa [2]: significantly resolved the intestinal metaplasia

SMILES: CO/N=C(\C(=O)N[C@@H]1C(=O)N2C(C(=O)O)=C(COC(C)=O)CS[C@H]12)c1csc(N)n1 [cefotaxime]
- Og can be treated using antibiotic (in vitro assays) [1]: can be treated

SMILES: O=C(N[C@H](CO)[C@H](O)c1ccc([N+](=O)[O-])cc1)C(Cl)Cl [chloramphenicol]
- Antibiotic sensitivity of Og ([1]; E-tests and diffusion disc tests, microaerophilic, 5% horse blood agar, read 72 hours after incubation): sensitive
- Og can be treated using antibiotic (in vitro assays) [1]: can be treated

SMILES: O=C(O)c1cn(C2CC2)c2cc(N3CCNCC3)c(F)cc2c1=O [ciprofloxacin]
- Og can be treated using antibiotic (in vitro assays) [1]: can be treated

SMILES: COc1c(N2CCNC(C)C2)c(F)cc2c(=O)c(C(=O)O)cn(C3CC3)c12 (stereo not shown) [gatifloxacin]
- Og can be treated using antibiotic (in vitro assays) [1]: can be treated
